Holding throughout (conditions): in vivo
In experiment [1] the test system is downy mildew (Pseudoperonospora cubensis).
Experiment [2] has the same test system. The source holds these as a separate data set.
For experiment [3], the system named is late blight (Phytophthora infestans).
The test system of experiment [4] is downy mildew (Pseudoperonospora cubensis). The source holds these as a separate data set.
Experiment [5] shares this test system. This is another data set of the same source.
The test system is the same in experiment [6]. The source holds these as a separate data set.
Experiment [7] deals with late blight (Phytophthora infestans). The source holds these as a separate data set.

Several values for one entry are separate records, joined by “and”; a condition that tells them apart may be missing. Equal values may be shown once. Read-outs that look alike come from different tables or passages of the source.

We go through 9 compounds from patent publication US7323188B2 (priority 1997, dated 2008).

As to `Cc1ccc(-c2c(Cl)nc(C#N)n2S(=O)(=O)N(C)C)cc1` [Compound No. 1, 4-chloro-2-cyano-1-dimethylsulfamoyl-5-(4-methylphenyl)imidazole], the Incidence rate was 85% and 90% in experiment [1]; 87% and 95% in experiment [2]; 47% and 50% and 31% and 37% in experiment [3]. Besides, in experiment [4], the “Lesion-free Area Ratio” value was 65%.
`COCC(=O)N(c1c(C)cccc1C)C(C)C(=O)OC` (racemic) [Metalaxyl, methyl N-(2-methoxyacetyl)-N-(2,6-xylyl)-DL-alaninate]: the Incidence rate in experiment [5] is 60% and 100%.
For the compound `CO/C=C(/C(=O)OC)c1ccccc1Oc1cc(Oc2ccccc2C#N)ncn1` [Compound (a), methyl (E)-2-{2-[6-(2-cyanophenoxy)pyrimidin-4-yloxy]phenyl}-3-methoxyacrylate], in experiment [5], the “Theoretical incidence rate (Colby's formula)” value is 100 (100) %.
For `O=P([O-])([O-])O.[K+].[K+]` [K2HPO4, dipotassium hydrogenphosphate], the Incidence rate in experiment [6] and in experiment [1] was 95% throughout.
Consider `COc1ccc(C(=CC(=O)N2CCOCC2)c2ccc(Cl)cc2)cc1OC` [Dimethomorph, (E,Z)-4-[(3-(4-chlorophenyl)-3-(3,4-dimethoxyphenyl)acryloyl]morpholine], for which the Incidence rate in experiment [5] was 50% and 60%; in experiment [7] it was 85% and 100%.
As to `CCNC(=O)NC(=O)C(C#N)=NOC` [Cymoxanil, 1-(2-cyano-2-methoxyiminoacetyl)-3-ethylurea], in experiment [7], the Incidence rate is 100%.
On to `OP(O)O` [H2(PO3H), phosphorous acid], for which the Incidence rate in experiment [6] and in experiment [1] was 75% throughout.
Consider `CO/N=C(/C(=O)OC)c1ccccc1COc1ccccc1C` [Compound (b), methyl (E)-methoxyimino[α-(o-tolyloxy)-O-tolyl]acetate], for which the Incidence rate in experiment [5] amounted to 100%.
With `O=P([O-])([O-])O.[Na+].[Na+]` [Na2HPO4, disodium hydrogenphosphate], the Incidence rate in experiment [6] and in experiment [1] was 100% each time.
